Test results taken from the supplement of paper PMC10307832.

Tests used:
Assay in all cases: relative viability (nuclei count vs DMSO), 5 days (fraction); higher = more cells survive
Vandetanib + Tozasertib = compound: COc1cc2/c(=N/c3ccc(Br)cc3F)nc[nH]c2cc1OCC1CCN(C)CC1 [Vandetanib] + Cc1cc(Nc2cc(N3CCN(C)CC3)nc(Sc3ccc(NC(=O)C4CC4)cc3)n2)n[nH]1 [Tozasertib] (partner 0.1 µM)
Outline: (§1)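 Dosing by pin tool came one day after lung cancer cell lines were seeded in 1536-well plates, using either one drug or a fixed anchor-drug dose plus five library-drug doses (not always all listed) in √10 steps. After 5 days, nuclei were counted on 4× images. Relative viability is treated-well nuclei count divided by vehicle-well nuclei count, and values are medians of duplicate plates.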

NVP-TAE684 + AZD7762 = compound: COc1cc(N2CCC(N3CCN(C)CC3)CC2)ccc1Nc1ncc(Cl)c(Nc2ccccc2S(=O)(=O)C(C)C)n1 [NVP-TAE684] + NC(=O)Nc1cc(-c2cccc(F)c2)sc1C(=O)N[C@H]1CCCNC1 [AZD7762] (partner 0.2 µM)
Outline: as §1

Vandetanib + Decitabine = compound: COc1cc2/c(=N/c3ccc(Br)cc3F)nc[nH]c2cc1OCC1CCN(C)CC1 [Vandetanib] + Nc1ncn([C@H]2C[C@H](O)[C@@H](CO)O2)c(=O)n1 [Decitabine] (partner 2 µM)
Outline: as §1

NVP-TAE684 + OSI-027 = compound: COc1cc(N2CCC(N3CCN(C)CC3)CC2)ccc1Nc1ncc(Cl)c(Nc2ccccc2S(=O)(=O)C(C)C)n1 [NVP-TAE684] + COc1cccc2cc(-c3nc([C@H]4CC[C@H](C(=O)O)CC4)n4ncnc(N)c34)[nH]c12 [OSI-027] (partner 0.5 µM)
Outline: as §1

| Cell Line | relative viability (Vandetanib + Tozasertib; first compound 0.02 µM) | relative viability (Vandetanib + Tozasertib; first compound 0.06325 µM) | relative viability (Vandetanib + Tozasertib; first compound 0.2 µM) | relative viability (Vandetanib + Tozasertib; first compound 0.6325 µM) | relative viability (Vandetanib + Tozasertib; first compound 2 µM) | relative viability (NVP-TAE684 + AZD7762; first compound 0.2 µM) | relative viability (NVP-TAE684 + AZD7762; first compound 0.6325 µM) | relative viability (NVP-TAE684 + AZD7762; first compound 2 µM) | relative viability (Vandetanib + Decitabine; first compound 0.02 µM) | relative viability (Vandetanib + Decitabine; first compound 0.06325 µM) | relative viability (Vandetanib + Decitabine; first compound 0.2 µM) | relative viability (Vandetanib + Decitabine; first compound 0.6325 µM) | relative viability (Vandetanib + Decitabine; first compound 2 µM) | relative viability (NVP-TAE684 + OSI-027; first compound 0.2 µM) | relative viability (NVP-TAE684 + OSI-027; first compound 0.6325 µM) | relative viability (NVP-TAE684 + OSI-027; first compound 2 µM) |
| --- | --- | --- | --- | --- | --- | --- | --- | --- | --- | --- | --- | --- | --- | --- | --- | --- |
| LCLC-97TM1 | 0.219 | 0.225 | 0.346 | 0.24 | 0.251 | 0.283 | 0.2 | 0.194 | 0.223 | 0.22 | 0.209 | 0.264 | 0.234 | 0.52 | 0.473 | 0.14 |
| LCLC-103H | 0.613 | 0.443 | 0.548 | 0.481 | 0.555 | 0.877 | 0.771 | 0.664 | 0.733 | 0.729 | 0.659 | 0.75 | 0.762 | 0.445 | 0.467 | 0.372 |
| LK-2 | 0.18 | 0.165 | 0.195 | 0.182 | 0.172 | 0.49 | 0.268 | 0.129 | 0.307 | 0.293 | 0.317 | 0.315 | 0.271 | 0.178 | 0.17 | 0.168 |
| LOU-NH91 | 0.735 | 0.635 | 0.61 | 0.543 | 0.526 | 0.782 | 0.425 | 0.532 | 0.816 | 0.734 | 0.681 | 0.679 | 0.66 | 0.746 | 0.674 | 0.571 |
| LU99A | 0.253 | 0.33 | 0.251 | 0.261 | 0.3 | 0.342 | 0.402 | 0.265 | 0.804 | 0.828 | 0.676 | 0.834 | 0.771 | 0.319 | 0.265 | 0.239 |
| LXF-289 | 0.242 | 0.241 | 0.215 | 0.176 | 0.193 | 0.939 | 1.11 | 1.07 | 0.376 | 0.382 | 0.362 | 0.348 | 0.393 | 0.798 | 0.808 | 0.317 |
| NCI-H23 | 0.307 | 0.41 | 0.144 | 0.382 | 0.327 | 0.24 | 0.209 | 0.151 | 0.358 | 0.328 | 0.346 | 0.293 | 0.325 | 0.666 | 0.544 | 0.236 |
| NCI-H322M | 0.52 | 0.454 | 0.521 | 0.465 | 0.291 | 0.553 | 0.599 | 0.453 | 0.688 | 0.658 | 0.763 | 0.718 | 0.577 | 0.426 | 0.469 | 0.336 |
| NCI-H358 | 0.111 | 0.106 | 0.104 | 0.0913 | 0.102 | 0.55 | 0.298 | 0.225 | 0.181 | 0.203 | 0.208 | 0.232 | 0.19 | 0.718 | 0.616 | 0.15 |
| NCI-H441 | 0.744 | 0.668 | 0.283 | 0.853 | 0.768 | 1.12 | 1.04 | 0.598 | 0.243 | 0.22 | 0.222 | 0.277 | 0.217 | 0.581 | 0.626 | 0.379 |
| NCI-H460 | 0.399 | 0.432 | 0.371 | 0.391 | 0.457 | 0.767 | 0.568 | 0.591 | 0.459 | 0.446 | 0.338 | 0.532 | 0.49 | 0.811 | 0.607 | 0.162 |
| NCI-H520 | 0.437 | 0.414 | 0.482 | 0.432 | 0.501 | – | – | – | 0.496 | 0.483 | 0.429 | 0.495 | 0.502 | 0.281 | 0.287 | 0.199 |
| NCI-H661 | 0.345 | 0.345 | 0.315 | 0.364 | 0.368 | – | – | – | 0.536 | 0.556 | 0.527 | 0.46 | 0.446 | 0.717 | 0.821 | 0.585 |
| NCI-H1563 | – | – | – | – | – | – | – | – | – | – | – | – | – | 0.736 | 0.678 | 0.596 |
| NCI-H1623 | 0.431 | 0.4 | 0.388 | 0.41 | 0.445 | – | – | – | – | – | – | – | – | 0.337 | 0.402 | 0.34 |
| NCI-H1650 | 0.354 | 0.24 | 0.146 | 0.378 | 0.374 | – | – | – | 0.361 | 0.451 | 0.413 | 0.502 | 0.403 | 0.374 | 0.437 | 0.217 |
| NCI-H1703 | – | – | – | – | – | 0.0907 | 0.102 | 0.0966 | – | – | – | – | – | – | – | – |
| NCI-H1792 | – | – | – | – | – | 0.678 | 0.733 | 0.394 | 0.487 | 0.469 | 0.698 | 0.53 | 0.444 | 0.779 | 0.731 | 0.818 |
| NCI-H2009 | 0.733 | 0.704 | 0.419 | 0.735 | 0.786 | – | – | – | 0.359 | 0.394 | 0.369 | 0.371 | 0.325 | 0.603 | 0.449 | 0.302 |
| NCI-H2023 | 0.436 | 0.31 | 0.217 | 0.298 | 0.337 | – | – | – | 0.235 | 0.183 | 0.225 | 0.253 | 0.204 | 0.412 | 0.258 | 0.101 |
| NCI-H2228 | 0.263 | 0.304 | 0.124 | 0.219 | 0.214 | – | – | – | – | – | – | – | – | 0.247 | 0.137 | 0.16 |
| SK-LU-1 | 0.36 | 0.361 | 0.133 | 0.292 | 0.317 | – | – | – | 0.605 | 0.562 | 0.658 | 0.612 | 0.654 | 0.31 | 0.37 | 0.181 |
| SK-MES-1 | 0.93 | 0.84 | 1.01 | 1.04 | 0.847 | – | – | – | 0.419 | 0.38 | 0.411 | 0.276 | 0.252 | 0.447 | 0.529 | 0.352 |
| SW 1573 | 0.153 | 0.169 | 0.19 | 0.174 | 0.195 | – | – | – | 0.467 | 0.481 | 0.594 | 0.508 | 0.393 | 0.741 | 0.455 | 0.226 |
